{"source": "patent US20030100464A1", "about": "“Dishwashing compositions containing alkylbenzenesulfonate surfactants” (priority 2001, published 2003)", "origin": "cited, not measured here", "molecules": {"B1": {"name": "D96L: D96L lipolytic enzyme variant of the native lipase derived from Humicola lanuginosa (protein, UniProt O59952 23-291, looked up, variant D96L)", "Lipase": "EVSQDLFNQFNLFAQYSAAAYCGKNNDAPAGTNITCTGNACPEVEKADATFLYSFEDSGVGDVTGFLALDNTNKLIVLSFRGSRSIENWIGNLNFLLKEINDICSGCRGHDGFTSSWRSVADTLRQKVEDAVREHPDYRVVFTGHSLGGALATVAGADLRGNGYDIDVFSYGAPRVGNRAFAEFLTVQTGGTLYRITHTNDIVPRLPPREFGYSHSSPEYWIKSGTLVPVTRNDIVKIEGIDATGGNNQPNIPDIPAHLWYFGLIGTCL"}}, "data": [{"details": "enzymes compared at 0.075 to 2.5 mg protein per liter", "values": [{"molecule": "B1", "improvement of lard stain removal efficiency, factor over the wild-type lipase": 4.4}]}, {"details": "all-aqueous solution at 25° C., ionic strength 0.1 to 0.5 M", "values": [{"molecule": "CCC(N)CCN", "note": "(stereo not drawn) [1,3 pentane diamine]", "pK1": 10.5, "pK2": 8.9}, {"molecule": "NCCCN", "note": "[1,3 propane diamine]", "pK1": 10.5, "pK2": 8.8}, {"molecule": "NCCCCCCN", "note": "[1,6 hexane diamine]", "pK1": 11, "pK2": 10}, {"molecule": "CC(CN)CCCN", "note": "(stereo not drawn) [2-methyl 1,5 pentane diamine]", "pK1": 11.2, "pK2": 10.0}]}]}
